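Growth conditions: 96-well plates. Treatment: test compound, 48 hours, 5 concentrations. Analysis: linear interpolation between bracketing concentrations; unreached endpoints set to highest concentration. Here, GI50 denotes the concentration required for 50% inhibition of growth.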 Activity calls are given as the source filed them. Rule as the data show it: active = GI50 up to about 1.1 µM and inactive = higher.
How the values were obtained:
Test in all cases: NCI-60 cell line screen, 48 h
IGROV-1 = system: IGROV-1
SNB-75 = system: SNB-75
SN12C = system: SN12C
UACC-62 = system: UACC-62
HOP-92 = system: HOP-92
HOP-62 = system: HOP-62
OVCAR-5 = system: OVCAR-5
A498 = system: A498
HT-29 = system: HT-29
SF-268 = system: SF-268
KM12 = system: KM12
SK-MEL-28 = system: SK-MEL-28
NCI-H460 = system: NCI-H460
Malme-3M = system: Malme-3M
MOLT-4 = system: MOLT-4
HCT-116 = system: HCT-116
A549 = system: A549
SR = system: SR
RXF 393 = system: RXF 393
COLO 205 = system: COLO 205

Measured: GI50

CN(C)c1n/c(=N/c2ccc(/N=c3\nc(N(C)C)ss3)cc2)ss1
inactive: IGROV-1 27.5 µM | SNB-75 13.5 µM | SN12C 40.3 µM | UACC-62 3.38 µM | HOP-92 > 100 µM | HOP-62 > 100 µM | OVCAR-5 > 100 µM | A498 33 µM | HT-29 21.9 µM | SF-268 37.9 µM | KM12 47.3 µM | SK-MEL-28 16.8 µM | NCI-H460 30.2 µM | Malme-3M 22.5 µM | MOLT-4 8.49 µM | HCT-116 15.1 µM | A549 37.9 µM | SR 6.01 µM | RXF 393 16.5 µM | COLO 205 28.2 µM

Source: ChEMBL document CHEMBL1201862, “PubChem BioAssay data set” (2004)
